The source of these data is patent publication US11147798B2, “Use of carbamate compound for prevention, alleviation, or treatment of demyelinating disease” (SK BIOPHARMACEUTICALS CO., LTD., priority 2016, dated 2021).

Assay [1] deals with Experimental Autoimmune Encephalomyelitis (EAE) model. Kind of assay: Systemic motor symptom alleviation (EAE clinical score) in an Experimental Autoimmune Encephalomyelitis (EAE) model. The format is in vivo, male C57BL/6 mice. As to conditions: for EAE clinical score: mean±SEM. The procedure: For this experiment, male C57BL/6 mice were purchased from Orient Bio, Inc. of Korea. The mice were placed in a wire mesh cage under conditions of ambient temperature of 20 to 24° C., relative humidity of 55 to 75%, an automatically controlled light-and-darkness cycle of 12 hours and free access to feed (purchased from Agri Brands Purina Korea, Inc.) and water. The mice were housed and maintained in accordance with the Laboratory Animal Care Standards of the Institutional Animal Care and Use Committee (IACUC). After about one week of stabilization, mice weighing 18 to 23 g were used in the experiment.
To 100 mg of Mycobacterium tuberculosis H37RA (killed and desiccated; Difco, 231141, USA) which had been well triturated in mortar, was mixed 10 ml of Incomplete Freund's adjuvant (IFA; Difco, 263910, USA) to prepare 10 mg/ml of Complete Freund's adjuvant (CFA) storage solution, followed by refrigeration at 4° C. Myelin oligodendrocyte glycoprotein (MOG35-55; Peptron, Korea) was diluted with PBS (phosphate-buffered saline; Gibco, 10010, USA) to a final concentration of 2 mg/ml and stored at −20° C. (MOG35-55 storage solution).
50 μg of PTX (pertussis toxin, PTX; Sigma, P7208, USA) was dissolved in 500 μl of PBS to prepare 100 μg/ml of pertussis toxin (PTX) storage solution, followed by […] at 4° C. In the experiment, the PTX storage solution was diluted 50 times with PBS and used.
On the first day of the experiment (Day-1), the EAE-inducing sample solution was administered to mice by subcutaneous injection at 200 μl per mouse. On the same day (Day-1) and two days later (Day-3), 200 μl of PTX solution was intraperitoneally administered to mice twice.
The EAE clinical score is as follows.
All data were expressed as mean±SEM. The EAE clinical scores in the group treated with the test compound were compared to those in the negative control vehicle group by date. Statistical analysis was performed using GraphPad Prism (ver. 4.0) program, and the differences between the two groups were analyzed by Student's t-test.

Assay [2] shares this test system. Put plainly: Pattern retinal conduction (pERG) amplitude in the EAE model. The class given is in vivo, female C57BL/6 mice. As to conditions: for Pattern retinal conduction amplitude (pERG amplitude), Mean ± SEM: measured 28 days after induction. As to the method:
(§1) For this experiment, female C57BL/6 mice were purchased from Janvier Labs of France and were maintained under conditions of temperature (22±1° C.), a light-and-darkness cycle of 12 hours and free access to water and food according to the protocol approved and investigated by the Animal Experiment Committee of Finland. All animals were kept isolated for a week after purchase and had time to adapt to the kennel. 11-week-old animals were used in the experiment. According to the criteria of the Animal Experiment Committee of Finland, in the case of a weight loss of 20% or more compared to the starting point, a degree of disease progression (clinical score) of 4 or more, or a failure in the righting reflex test in clinical score of 3, the experiment was stopped and animals were sacrificed for humanitarian purposes.
(§2) To induce EAE, an inoculum was purchased from Hooke Laboratories of the United States: the inoculum contains 100 μg of MOG35-55 peptide and 200 μg of heat-inactivated Mycobacterium tuberculosis, both dissolved in 100 μl of mineral oil. 100 μl of the inoculum was injected subcutaneously into both high and low parts of the back of mice. 100 μl pertussis toxin was injected into the peritoneum of the mice twice, two hours after inoculation and after 24 hours.
The test compound was dissolved in distilled water containing 30% polyethylene glycol 400 (PEG 400) and treated with an ultrasonic sonicator for 30 minutes. […]
Pattern retinal conduction was measured two days before and 28 days after EAE induction. […] After performing the test, the results were analyzed using Matlab software (MathWorks, Natick, Mass.).
(§3) Quantitative data were graphed (plotted) and analyzed using Prism software version 7 (GraphPad Software Inc. La Jolla, Calif.), the data were expressed as mean±standard deviation or standard error of mean. Comparisons with the vehicle group were analyzed using a t-test, and when the significance (p value) was less than 0.05, it was judged as a statistically significant difference.

The next assay deals with retinal ganglion cells. Put plainly: Number of retinal ganglion cells per unit area in retinal whole mounts (Brn3a, RBPMS staining) in the EAE model. The class given is in vivo, female C57BL/6 mice. As to the method: as §1, §2
The test compound was dissolved in distilled water containing 30% polyethylene glycol 400 (PEG 400) and treated with an ultrasonic sonicator for 30 minutes. The dissolved compound (20 mg/kg or 30 mg/kg) or vehicle was injected into the peritoneum once daily from the 12th day after EAE induction.
When the experiment was terminated or when the time of sacrifice for humanitarian purposes was reached, the mice were sacrificed by cardiac perfusion using a tissue fixative, and the eye and optic nerve were removed for further analysis.
The retinal whole mount samples were extracted from both eyes and stained with antibodies of RBPMS (RNA binding protein with multiple splicing) and Brn3a (brain-specific homeobox/POU domain protein 3A) which are retinal ganglion cell markers, followed by analyzation in a stereological manner (Stereo Investigator, MicroBrightfield, VT, USA).
as §3

Structures are written as SMILES. Where “and” joins values, the source holds several entries; their conditions need not be identical. Identical values can stand only once.

`NC(=O)O[C@@H](Cn1ncnn1)c1ccccc1Cl` [Test compound]: the EAE clinical score in assay [1] (Day-1~Day-9 (before dosing)) came out at 0.0 ± 0.0; in assay [1] (Day-10 (before dosing)), 0.5 ± 0.8; in assay [1] (Day-11, 10 ml/kg orally once a day from Day-11) it was 0.8 ± 1.0; in assay [1] (Day-12, 10 ml/kg orally once a day from Day-11), 1.2 ± 1.1; in assay [1] (Day-13, 10 ml/kg orally once a day from Day-11), 1.3 ± 0.7; in assay [1] (Day-14, 10 ml/kg orally once a day from Day-11), 2.0 ± 0.6. The EAE clinical score amounted to 1.9 ± 0.5 in assay [1] (Day-15, 10 ml/kg orally once a day from Day-11); 1.9 ± 0.6 in assay [1] (Day-16, 10 ml/kg orally once a day from Day-11); 2.1 ± 0.6 in assay [1] (Day-17, 10 ml/kg orally once a day from Day-11); 2.1±0.6 in assay [1] (Day-17, 10 ml/kg orally once a day from Day-11, listed as test compound); 1.8 ± 0.5 in assay [1] (Day-18, 10 ml/kg orally once a day from Day-11); 1.7 ± 0.6 in assay [1] (Day-19, 10 ml/kg orally once a day from Day-11, p < 0.05 vs. vehicle). For the same compound, the EAE clinical score in assay [1] (Day-20, 10 ml/kg orally once a day from Day-11, p < 0.05 vs. vehicle) is 1.4 ± 0.5; in assay [1] (Day-21, 10 ml/kg orally once a day from Day-11, p < 0.01 vs. vehicle) it was 1.3 ± 0.4; in assay [1] (Day-22, 10 ml/kg orally once a day from Day-11, p < 0.01 vs. vehicle) it was 1.1 ± 0.5. Also, the “Effect on EAE clinical symptoms compared to the vehicle group” value in assay [1] (Day-19 to Day-22, orally once a day from Day-11) is “significant inhibition of EAE clinical symptoms”. In addition, the “Pattern retinal conduction amplitude (pERG amplitude), Mean ± SEM” value was 7.803 in assay [2] (20 mg/kg i.p. once daily from 12th day after EAE induction) and 7.378 in assay [2] (30 mg/kg i.p. once daily from 12th day after EAE induction). In addition, the “Pattern retinal conduction amplitude compared to the baseline” value in assay [2] (20 mg/kg or 30 mg/kg, baseline measured two days before EAE induction) was “no significant difference”. For the same compound, in the assay on retinal ganglion cells (20 mg/kg i.p. once daily from 12th day after EAE induction, Brn3a marker), the “Number of retinal ganglion cells per unit area, Brn3a (individual values)” value is 2675 and 1751 and 1443 and 2139 and 720 and 2221 and 1859 and 2489 and 1674 and 2035 and 2328 and 1389 and 1919. The “Number of retinal ganglion cells per unit area, Brn3a, Mean ± SEM” value in the assay on retinal ganglion cells (20 mg/kg i.p. once daily from 12th day after EAE induction, Brn3a marker, **p < 0.01 vs. vehicle) stood at 1895. Further, the “Number of retinal ganglion cells per unit area, RBPMS (individual values)” value in the assay with retinal ganglion cells (20 mg/kg i.p. once daily from 12th day after EAE induction, RBPMS marker) is 3005 and 2251 and 1778 and 2976 and 1781 and 2297 and 2479.9735 and 2722 and 2362 and 2485.7761 and 2784.6808 and 2292 and 2567. For the same compound, the “Number of retinal ganglion cells per unit area, RBPMS, Mean ± SEM” value in the assay on retinal ganglion cells (20 mg/kg i.p. once daily from 12th day after EAE induction, RBPMS marker, **p < 0.01 vs. vehicle) is reported as 2445. In the assay on retinal ganglion cells (20 mg/kg, EAE-induced animals), the “Number of retinal ganglion cells per unit area compared to the vehicle group” value is given as “larger number of retinal ganglion cells per unit area”.
